pIC50: −log10 of the molar value. The source made the active and inactive calls. The calls are words filed in the database; no cut-off is given here.
Experiments:
Homo sapiens = organism: Homo sapiens; experiment: Selectivity ratio of IC50 for N-terminal GST-tagged human PDE6C to IC50 for N-terminal GST-tagged human PDE5A1
Rattus norvegicus = experiment: Antihypertensive activity in spontaneously hypertensive rat assessed as reduction in mean arterial pressure at 20 mg/kg administered via single gavage measured up to 24 hrs; format: functional, organism-based
[1] = biological target: cGMP-specific 3',5'-cyclic phosphodiesterase (Homo sapiens, UniProt O76074); experiment: Inhibition of N-terminal GST-tagged human PDE5A1 expressed in baculovirus infected sf9 cells using [3H]cGMP as substrate measured after 30 mins by scintillation proximity assay
[2] = Metabolic stability in human liver microsomes assessed as parent compound remaining at 1 uM in presence of NADPH after 30 mins by LC-MS/MS analysis; format: ADME, Microsome; details: read-out: Stability

| Ratio IC50 (Homo sapiens) | pIC50 [1] | remaining at 0.5 h, 1 µM [2] [%] | SMILES | Activity (Rattus norvegicus) |
| --- | --- | --- | --- | --- |
| 7 | – | – | CCCOc1ccc(NC(=O)CCCNC(C)=O)cc1-c1nc(CC)c(CC)c(=O)[nH]1 | – |
| 11 | – | – | CCCOc1ccc(NC(=O)CC)cc1-c1nc(CC)c(CC)c(=O)[nH]1 | – |
| 22 | – | – | CCCOc1ccc(NC(=O)C(N)=O)cc1-c1nc(CC)c(CC)c(=O)[nH]1 | – |

Second part, the molecule before the results:

| SMILES | Ratio IC50 (Homo sapiens) | pIC50 [1] | remaining at 0.5 h, 1 µM [2] [%] | Activity (Rattus norvegicus) |
| --- | --- | --- | --- | --- |
| CCCOc1ccc(S(=O)(=O)NCCC(=O)O)cc1-c1nc(CC)c(CC)c(=O)[nH]1 | 86 | 8.77 | 100 | inactive |
| CCCOc1ccc(S(=O)(=O)N(CCO)CCN2CCOCC2)cc1-c1nc(CC)c(CC)c(=O)[nH]1 | 10 | – | – | – |
| CCCOc1ccc(NC(=O)C(=O)N2CCN(C)CC2)cc1-c1nc(CC)c(CC)c(=O)[nH]1 | 17 | 8.81 | – | – |
| CCCOc1ccc(S(=O)(=O)N2CCN(C)CC2)cc1-c1nc(CC)c(CC)c(=O)[nH]1 | – | – | 29 | – |
| CCCOc1ccc(S(=O)(=O)N2CCC[C@H]2C(=O)O)cc1-c1nc(CC)c(CC)c(=O)[nH]1 | 20 | 8.69 | – | – |
| CCCOc1ccc(NC(=O)CN2CCCCC2)cc1-c1nc(CC)c(CC)c(=O)[nH]1 | 9 | 8.84 | – | – |
| CCCOc1ccc(NC(=O)N2CCCC2)cc1-c1nc(CC)c(CC)c(=O)[nH]1 | 11 | – | – | – |

— ChEMBL document CHEMBL4396872, “Pharmacokinetics-Driven Optimization of 4(3 H)-Pyrimidinones as Phosphodiesterase Type 5 Inhibitors Leading to TPN171, a Clinical Candidate for the Treatment of Pulmonary Arterial Hypertension” (J Med Chem, 2019)
